Assay results published in US10039749B1, “Substituted pyrazole derivatives” (KING SAUD UNIVERSITY, priority 2018, dated 2018).
Where two headings read alike, the source gives them in different places. Marks after values point to notes of the source that are not given here.

Assays:
[1] = tested on: Breast subpanel tumor cell lines; test: In vitro anticancer screening, five concentration levels, breast subpanel; type: cell-based, human
Experimental: (§1) Anticancer evaluation of the newly synthesized compound was performed by a screening in vitro with 60 human cell lines for primary anticancer screening, representing leukemia, melanoma and cancers of the lung, colon, brain, ovary, breast, prostate and kidney. The screening was a two-stage process, beginning with the evaluation of all compounds against the 60 cell lines at a single-dose of 10 μM. […] Therefore this compound passed on to further evaluation at five concentration levels ranging from 0.01 μM to 100 μM.

[2] = tested on: Lung subpanel tumor cell lines; test: In vitro anticancer screening, five concentration levels, lung subpanel; type: cell-based, human
Experimental: as §1

[3] = tested on: CNS subpanel tumor cell lines; test: In vitro anticancer screening, five concentration levels, CNS subpanel; type: cell-based, human
Experimental: as §1

[4] = tested on: Prostate subpanel tumor cell lines; test: In vitro anticancer screening, five concentration levels, prostate subpanel; type: cell-based, human
Experimental: as §1

[5] = tested on: Ovarian subpanel tumor cell lines; test: In vitro anticancer screening, five concentration levels, ovarian subpanel; type: cell-based, human
Experimental: as §1

60 human cell lines = test: In vitro anticancer screening, full panel; type: cell-based; conditions: for GI50: Homo sapiens, read-out: GI50 MG-MID (full panel mean-graph midpoint)
Experimental: as §1

Sprague-Dawley rats = test: In vivo acute toxicity (LD50); set-up: species or system rat
Experimental: (§2) Adult male Sprague-Dawley rats (180±20 g, body weight), were purchased from the animal house of the National Research Centre, Egypt. They were maintained for 1 week under environmentally controlled conditions (constant temperature, 25-27° C., with 12-hour light/dark cycles) for 1 week prior to starting the experiments. The […] were housed with 10 animals per cage, and were provided with tap water and commercial diets.
Acute toxicity of the target compound was determined in vivo according to previously reported methods in the literature. Briefly, animals were divided into groups of 10 rats each, and administered single intravenous (IV) doses, graded ranging from 0 to 1200 μg/kg, of the synthesized compound. Control animals received vehicle alone (dimethyl sulfoxide, DMSO).
The mortality of the animals was monitored for up to 1 month posttreatment. […] Acute toxicity was considered by the in vivo assay.

[6] = tested on: Melanoma subpanel tumor cell lines; test: In vitro anticancer screening, five concentration levels, melanoma subpanel; type: cell-based, human
Experimental: as §1

[7] = tested on: DENA-induced liver cancer in rats; test: Liver function in DENA-induced liver cancer in rats; type: in vivo, rat; conditions: for ALP / ALT / AST / Bili (total bilirubin): serum, mean ± SE
Experimental: as §2
Diethylnitrosamine (DENA) and carbon tetrachloride (CCl4) were purchased from Sigma-Aldrich Chemical Corp., (St. Louis, Mo., USA). The DENA was dissolved in normal saline and injected as a single dose (200 mg/kg, intraperitoneally, i.p.) to initiate hepatic carcinogenesis. The CCl4 was administered as a single dose (2 ml/kg) by gavage as a 1:1 dilution in corn oil to stimulate liver cell proliferation and regeneration. The aspartate transaminase (AST), alanine transaminase (ALT), alkaline phosphatase (ALP), and total bilirubin (Bili) kits were obtained from BioMérieux (France).
Adult male Sprague-Dawley rats were divided into groups of eight animals each. Group 1 rats (untreated control) were fed a standard diet and given water throughout the experiment. Group 2 rats (treated with DENA) were injected with a single dose of DENA (200 mg/kg, i.p.), and 2 weeks later received a single dose of CCl4 (2 ml/kg) by gavage as 1:1 dilution in corn oil. Group 3 rats (treated with DENA and target compound) consisted of rats that were treated as the rats in Group 2, but also were treated with target compound administered IV at a dose that was 1/10 the LD50, for 10 consecutive days.
At the end of the treatment protocol on day 30 after the last injection, the animals were anesthetized with ether, and blood samples were drawn from the orbital venous plexus. The serum was separated by centrifugation for 5 minutes at 1500 g, and stored at −20° C. until analyzed. This serum was used to determine the liver function by assaying the ALT, AST, and ALP activities and total bilirubin spectrophotometrically according to the manufacturer's instructions using reagent kits obtained from […]. Liver function was measured, comparing results for control rats with results in DENA-treated and in target compound-treated rats. The results were reported as mean±standard error of the mean (SE). Statistical significance was analyzed using a one-way analysis of variance (ANOVA) followed by the Student's t-test, while the differences were considered to be significant at p<0.05.

[8] = tested on: DENA-induced liver cancer in rats; test: Histopathological examination of rat liver sections; type: in vivo; conditions: H&E staining
Text: For the histopathological examination, the animals were euthanized by decapitation and their livers were rapidly excised, weighed, and washed with saline. Portions of the livers were fixed in 10% formalin in saline, embedded in paraffin wax, serially sectioned, and stained. A standard method of hematoxylin and eosin (H&E) staining was also used.

[9] = tested on: Colon subpanel tumor cell lines; test: In vitro anticancer screening, five concentration levels, colon subpanel; type: cell-based, human
Experimental: as §1

[10] = tested on: Renal subpanel tumor cell lines; test: In vitro anticancer screening, five concentration levels, renal subpanel; type: cell-based, human
Experimental: as §1

[11] = tested on: Leukemia subpanel tumor cell lines; test: In vitro anticancer screening, five concentration levels, leukemia subpanel; type: cell-based, human
Experimental: as §1

[12] = DENA/CCl4 rats treated IV at 1/10 LD50 for 10 days, day 30 after last injection
[13] = rats given DENA 200 mg/kg i.p. then CCl4, no target compound

Q: What does the source list for COc1ccc(-c2nn(-c3cccc(Cl)c3)cc2/C=C2\C(=N)N(c3ccccc3)N=C2N)cc1 [Compound 2, (4Z)-4-((1-(3-Chlorophenyl)-3-(4-methoxyphenyl)-1H-pyrazol-4-yl)methylene)-4,5-dihydro-5-imino-1-phenyl-1H-pyrazol-3-amine]?
A: Selectivity ratio, Breast [1]: 1.68; GI50 ([1]; Homo sapiens, read-out: Median growth inhibitory concentration GI50, Breast): 2130 nM; Selectivity ratio, Lung [2]: 0.49; GI50 ([2]; Homo sapiens, read-out: Median growth inhibitory concentration GI50, Lung): 7.39 µM; Selectivity ratio, CNS [3]: 0.63; GI50 ([3]; Homo sapiens, read-out: Median growth inhibitory concentration GI50, CNS): 5.7 µM; Selectivity ratio, Prostate [4]: 5.19; GI50 ([4]; Homo sapiens, read-out: Median growth inhibitory concentration GI50, Prostate): 690 nM; Selectivity ratio, Ovarian [5]: 0.59; GI50 ([5]; Homo sapiens, read-out: Median growth inhibitory concentration GI50, Ovarian): 6.11 µM; GI50 (60 human cell lines; 60 cell): 3590 nM; Growth inhibition, one dose mean graph (60 human cell lines; single-dose of 10 μM, 60 cell lines): significant growth inhibition; Median lethal dose (LD50) (Sprague-Dawley rats; single IV dose, mortality monitored up to 1 month): 195 μg/kg body weight; Acute toxicity (in words) (Sprague-Dawley rats; single IV doses 0 to 1200 μg/kg): no marked acute toxicity; Selectivity ratio, Melanoma [6]: 1.27; GI50 ([6]; Homo sapiens, read-out: Median growth inhibitory concentration GI50, Melanoma): 2830 nM; AST, ALT and ALP activities and total bilirubin level compared to DENA-treated rats (in words) ([7]; dose of 1/10 of the LD50): substantial normalization; ALP [7, 12]: 124.00 ± 12.00^b U/L; ALT [7, 12]: 49.00 ± 4.6^b U/L; AST [7, 12]: 70.00 ± 7.2^b U/L; Bili (total bilirubin) [7, 12]: 1.63 ± 0.16^b mg/dl; Liver histology (H&E) of DENA-rats treated with target compound ([8]; listed as target): improvement in the hepatic pattern associated with normal hepatic architecture; Liver histology (H&E) of DENA-rats treated with target compound ([8]; listed as target compound): normal hepatic architecture; Selectivity ratio, Colon [9]: 2.86; GI50 ([9]; Homo sapiens, read-out: Median growth inhibitory concentration GI50, Colon): 1250 nM; Selectivity ratio, Renal [10]: 0.65; GI50 ([10]; Homo sapiens, read-out: Median growth inhibitory concentration GI50, Renal): 5.55 µM; Selectivity ratio, Leukemia [11]: 5.86; GI50 ([11]; Homo sapiens, read-out: Median growth inhibitory concentration GI50, Leukemia): 610 nM

Q: Which ALP [7, 13] does the source give for CCN(CC)N=O [DENA, Diethylnitrosamine, reference compound] here?
A: Its ALP is 215.00 ± 15.7^a U/L.

Q: What about the ALT [7, 13] of the same compound?
A: The ALT was 95.00 ± 7.0^a U/L.

Q: And the AST [7, 13]?
A: The AST was 110.00 ± 7.8^a U/L.

Q: And the “Bili (total bilirubin)” value [7, 13]?
A: Its value is 2.90 ± 0.20^a mg/dl.

Q: For CNC(=O)c1cc(Oc2ccc(NC(=O)Nc3ccc(Cl)c(C(F)(F)F)c3)cc2)ccn1 [Sorafenib, sorafenib, reference compound], which GI50 (60 human cell lines; full panel, 60 cell lines) is on record?
A: The GI50 was 1900 nM.
